Patent US20240417764A1, “METHODS FOR THE PRODUCTION OF TRYPTOPHANS, TRYPTAMINES, INTERMEDIATES, SIDE PRODUCTS AND DERIVATIVES” (priority 2021, published 2024)

Legend:
[1] = target: T1, endogenous Escherichia coli tryptophan synthase beta subunit (TrpB) (Escherichia coli, UniProt P0A879); experiment: TrpB substrate flexibility, in vivo conversion of substituted indoles to tryptophans; assay type: cell-based; settings: sampled at 24 h
T1 construct: Yield for production of tryptophan derivatives by native E. coli TrpB from indole derivatives; endogenous in cells; host or cells: E. coli BL21 Star (DE3) carrying pETM6-SDM2x (empty vector for the TrpB-alone study)
T1 sequence (P0A877 whole entry): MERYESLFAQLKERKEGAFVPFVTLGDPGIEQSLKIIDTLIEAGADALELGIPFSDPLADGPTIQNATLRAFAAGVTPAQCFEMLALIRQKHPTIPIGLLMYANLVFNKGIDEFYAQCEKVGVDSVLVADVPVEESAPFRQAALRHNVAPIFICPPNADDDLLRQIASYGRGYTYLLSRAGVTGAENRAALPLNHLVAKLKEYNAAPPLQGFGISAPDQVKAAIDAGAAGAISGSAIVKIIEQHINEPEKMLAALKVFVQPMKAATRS
T1 sequence (P0A879 2-397): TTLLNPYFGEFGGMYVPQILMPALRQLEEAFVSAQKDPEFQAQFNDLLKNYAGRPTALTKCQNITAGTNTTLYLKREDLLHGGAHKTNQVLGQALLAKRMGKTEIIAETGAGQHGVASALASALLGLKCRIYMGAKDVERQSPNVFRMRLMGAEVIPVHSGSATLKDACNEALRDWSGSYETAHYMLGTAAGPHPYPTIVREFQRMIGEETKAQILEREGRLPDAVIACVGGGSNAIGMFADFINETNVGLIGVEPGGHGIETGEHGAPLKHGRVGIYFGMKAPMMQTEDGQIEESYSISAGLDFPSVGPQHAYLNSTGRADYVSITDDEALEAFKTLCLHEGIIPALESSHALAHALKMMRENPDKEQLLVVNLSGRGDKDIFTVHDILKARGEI
Source text: (§1) Four previously constructed BL21 Star™ (DE3) cell lines with pETM6-SDM2x plasmid backbones were used, each with endogenous Escherichia coli (E. coli) tryptophan synthase beta subunit (TrpB); (1) no gene insert (empty vector), (2) PsiD gene insert with T7 promoter, (3) PsiD-PsiK gene insert with C4 promoter in operon configuration (pNor, Norbaeocystin Production Strain) (Adams et al., 2022), and (4) PsiD-PsiK-PsiM gene insert with H10 promoter in operon configuration (pSilo16, Psilocybin Production Strain; See WO 2021/086513) (Adams et al., 2019). For the PsiD transcriptional optimization study, each of the nine previously described library members were used, in lieu of the strains above. Overnight cultures were grown in Andrew's Magic Media (AMM) without MOPS, appropriate antibiotics for plasmid retention, and were inoculated from freezer stocks. Experimental cultures were incubated in covered 48-well plates at 37° C. in a shaking incubator. AMM media consistent with above was inoculated at 2% final volume of respective overnight culture and 2 mL aliquoted to each well. Indole derivatives were added to each well, except negative control, at 100 mg/L using 5 uL from a 40 mg/mL stock in EtOH. 4-Nitroindole at 13.3 mg/mL in EtOH was added using 15 uL due to solubility limitations. Cultures were induced at 2 hours using 1 mM ITPG. Cultures were sampled at 24 hours and subjected to LC-MS analysis as described below. Cultures with serine added were identical to those without, except for adding 4.5 g/L of serine prior to inoculation.
Without commercially available standards for many of these compounds absolute quantification of enzymatic products is not possible. Peak areas from one substituted indole could not be compared directly to peak areas from another substituted indole due to significant differences in extinction coefficients. Relative quantification was performed by comparing product UV 280 nm peak areas from HPLC analysis (mAU*min) to that of the corresponding substituted indole. TrpB proficiencies with and without serine were calculated by dividing the tryptophan product peak areas by the total peak areas from the indole and tryptophan peaks. Tryptophan and indole peak areas were determined from duplicate samples with indole and subtraction of any time-correlated peak areas found in the samples without indole addition. Any other indole related peak areas found in indole samples were included in the denominator. Indole related peaks were defined as peaks found in indole samples, but absent from samples without indole addition. Similar calculations were performed for PsiD proficiencies where tryptamine peak areas were divided by the total area of associated tryptamine and tryptophan peaks. Indole utilization was also calculated for PsiD proficiencies where the remaining indole peak areas were divided by the initial peak areas.

E. coli BL21 Star (DE3) = experiment: Culture growth of E. coli production host supplemented with indole derivatives; assay type: cell-based, Escherichia coli; settings: indole derivative 100 mg/L in 48-well culture, 37 C, compared visually with other indoles
Source text: as §1
Other indoles may have slowed cell growth, but the differences were not easily distinguishable visually as OD600 reading were not taken for every sample.

P. cubensis PsiD = target: T2, P. cubensis PsiD (Psilocybe cubensis, UniProt P0DPA6, L22F); experiment: PsiD substrate flexibility, in vivo decarboxylation of substituted tryptophans to tryptamines; assay type: cell-based, Escherichia coli; settings: in vivo in E. coli expressing PsiD, HPLC/LCMS detection
T2 construct: expressed in transfected cells; host or cells: E. coli BL21 Star (DE3); PsiD insert with the T7 promoter, or promoter/backbone library members, or pNor and pSilo16
T2 sequence (P0DPA6 whole entry, stated change not applied): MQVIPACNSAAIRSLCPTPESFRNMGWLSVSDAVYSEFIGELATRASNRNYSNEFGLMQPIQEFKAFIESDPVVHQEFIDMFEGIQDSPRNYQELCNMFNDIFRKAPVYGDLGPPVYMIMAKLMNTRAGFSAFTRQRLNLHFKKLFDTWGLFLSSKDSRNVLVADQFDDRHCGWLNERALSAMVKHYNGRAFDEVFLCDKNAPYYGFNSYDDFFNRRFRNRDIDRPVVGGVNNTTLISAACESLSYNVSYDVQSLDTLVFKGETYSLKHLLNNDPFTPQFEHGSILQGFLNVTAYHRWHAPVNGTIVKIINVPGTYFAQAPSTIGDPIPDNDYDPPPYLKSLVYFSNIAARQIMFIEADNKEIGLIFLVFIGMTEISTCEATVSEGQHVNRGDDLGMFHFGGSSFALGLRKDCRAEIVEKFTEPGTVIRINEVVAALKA
Source text: as §1, with “Indole derivatives were added to each well, except negative control, at 100 mg/L using 5 uL from a 40 mg/mL stock in EtOH. 4-Nitroindole at 13.3 mg/mL in EtOH was added using 15 uL due to solubility limitations. Cultures were induced at 2 hours using 1 mM ITPG. Cultures were sampled at 24 hours and subjected to LC-MS analysis as described below. Cultures with serine added were identical to those without, except for adding 4.5 g/L of serine prior to inoculation.” left out
Without commercially available standards for many of these compounds absolute quantification of enzymatic products is not possible. […] Relative quantification was performed by comparing product UV 280 nm peak areas from HPLC analysis (mAU*min) to that of the corresponding substituted indole. TrpB proficiencies with and without serine were calculated by dividing the tryptophan product peak areas by the total peak areas from the indole and tryptophan peaks. Tryptophan and indole peak areas were determined from duplicate samples with indole and subtraction of any time-correlated peak areas found in the samples without indole addition. […] Indole utilization was also calculated for PsiD proficiencies where the remaining indole peak areas were divided by the initial peak areas.
PsiD substrate flexibility was evaluated jointly in vivo with TrpB, such that if indoles were not sufficiently processed by TrpB, then PsiD activity could not be evaluated. […]

[2] = without supplemental serine, indole 100 mg/L, tryptophan peak area / total indole-related peak areas (UV 280 nm)
[3] = with supplemental serine 4.5 g/L

| Compound | TrpB proficiency (class) [1, 2] | TrpB proficiency [1, 3] | culture growth retardation (toxicity effects of the indole derivatives) (E. coli BL21 Star (DE3)) | other results |
| --- | --- | --- | --- | --- |
| Nc1cccc2cc[nH]c12 [7-aminoindole] | moderate (35-65%) or low proficiency (5-35%) |  |  |  |
| COc1ccc2[nH]ccc2c1 [5-methoxyindole] | moderate (35-65%) or low proficiency (5-35%) |  |  |  |
| Oc1cccc2cc[nH]c12 [7-hydroxyindole] |  | 100% |  |  |
| Brc1cccc2[nH]ccc12 [4-bromoindole] | moderate (35-65%) or low proficiency (5-35%) |  | significant culture growth retardation |  |
| Ic1cccc2cc[nH]c12 [7-iodoindole] |  | 100% |  |  |
| O=[N+]([O-])c1ccc2cc[nH]c2c1 [6-nitroindole] |  |  | significant culture growth retardation |  |
| Oc1ccc2cc[nH]c2c1 [6-hydroxyindole] |  | 3% |  |  |
| Fc1cccc2cc[nH]c12 [7-fluoroindole] | moderate (35-65%) or low proficiency (5-35%) | 95% | significant culture growth retardation | TrpB proficiency [1, 2]: 45% |
| Ic1ccc2[nH]ccc2c1 [5-iodoindole] |  |  | significant culture growth retardation |  |
| Oc1ccc2[nH]ccc2c1 [5-hydroxyindole] | moderate (35-65%) or low proficiency (5-35%) |  |  |  |
| Fc1cccc2[nH]ccc12 [4-fluoroindole] | moderate (35-65%) or low proficiency (5-35%) | 100% | significant culture growth retardation | TrpB proficiency [1, 2]: 27% |
| Clc1cccc2[nH]ccc12 [4-chloroindole] | moderate (35-65%) or low proficiency (5-35%) |  | significant culture growth retardation |  |
| COc1cccc2cc[nH]c12 [7-methoxyindole] |  | 100% |  |  |
| COc1cccc2[nH]ccc12 [4-methoxyindole] | moderate (35-65%) or low proficiency (5-35%) |  |  |  |
| Cc1cccc2[nH]ccc12 [4-methylindole] | moderate (35-65%) or low proficiency (5-35%) | 93% | significant culture growth retardation | TrpB proficiency [1, 2]: 22% |
| Fc1ccc2cc[nH]c2c1 [6-fluoroindole] | moderate (35-65%) or low proficiency (5-35%) |  | significant culture growth retardation |  |
| Brc1cccc2cc[nH]c12 [7-bromoindole] |  | 100% |  |  |

| Compound | TrpB proficiency (class) [1, 2] | TrpB proficiency [1, 3] | culture growth retardation (toxicity effects of the indole derivatives) (E. coli BL21 Star (DE3)) | other results |
| --- | --- | --- | --- | --- |
| Clc1ccc2cc[nH]c2c1 [6-chloroindole] | moderate (35-65%) or low proficiency (5-35%) |  | significant culture growth retardation |  |
| Clc1cc2ccccc2[nH]1 [2-chloroindole] | moderate (35-65%) or low proficiency (5-35%) |  |  |  |
| N[C@@H](Cc1c(Cl)[nH]c2ccccc12)C(=O)O [2-chlorotryptophan] |  |  |  | PsiD conversion to tryptamine product (P. cubensis PsiD): neither tryptamine product was observed |
| Cc1ccc2[nH]ccc2c1 [5-methylindole] | moderate (35-65%) or low proficiency (5-35%) |  |  |  |
| Ic1cccc2[nH]ccc12 [4-iodoindole] | moderate (35-65%) or low proficiency (5-35%) |  | significant culture growth retardation |  |
| Cc1[nH]c2ccccc2c1C[C@H](N)C(=O)O [2-methyltryptophan] |  |  |  | PsiD conversion to tryptamine product (P. cubensis PsiD): neither tryptamine product was observed |
| Oc1cccc2[nH]ccc12 [4-hydroxyindole] |  | 100% |  |  |
| Cc1cccc2cc[nH]c12 [7-methylindole] |  | 100% |  |  |
| Fc1ccc2[nH]ccc2c1 [5-fluoroindole] | moderate (35-65%) or low proficiency (5-35%) |  | significant culture growth retardation |  |
| COc1ccc2cc[nH]c2c1 [6-methoxyindole] | moderate (35-65%) or low proficiency (5-35%) |  |  |  |
| Cc1cc2ccccc2[nH]1 [2-methylindole] |  | 100% |  | PsiD conversion to tryptamine product (P. cubensis PsiD): no tryptamine product could be detected |
| N#Cc1cccc2cc[nH]c12 [7-cyanoindole] | moderate (35-65%) or low proficiency (5-35%) |  |  |  |
| Brc1ccc2cc[nH]c2c1 [6-bromoindole] | moderate (35-65%) or low proficiency (5-35%) |  | significant culture growth retardation |  |
| Ic1ccc2cc[nH]c2c1 [6-iodoindole] | moderate (35-65%) or low proficiency (5-35%) |  | significant culture growth retardation |  |
| Nc1cccc2[nH]ccc12 [4-aminoindole] | moderate (35-65%) or low proficiency (5-35%) | 23% | significant culture growth retardation |  |
| Clc1ccc2[nH]ccc2c1 [5-chloroindole] |  |  | significant culture growth retardation |  |
| Brc1ccc2[nH]ccc2c1 [5-bromoindole] |  |  | significant culture growth retardation |  |
